The values that follow come from patent US20240376121A1, “COMPOUNDS AND USES THEREOF” (Foghorn Therapeutics Inc., priority 2021, published 2024).

The structures appear in SMILES notation. Where only a bound is given, the exact number is not on record here.

One experiment deals with T1, HiBit-BRM fusion protein (Homo sapiens, UniProt P51531).
T1 construct: expressed in transfected cells
In words: HiBiT-BRM cell-based degradation assay (Nano-Glo HiBiT Lytic Detection). The following applies: stable HeLa cell line expressing HiBiT-BRM, 24 h incubation; for BRM HiBit Degradation Maximum (%): top dose 30 μM; for DC50: read-out: BRM HiBit Degradation IC50. The protocol:
(§1) Procedure: A stable HeLa cell line expressing HiBiT-BRM was generated. On day 0, 5000 cells were seeded in 40 μL of media into each well of 384-well cell culture plates. On day 1, cells were treated with 120 nL DMSO or 120 nL of 3-fold serially DMSO-diluted compounds (10 points in duplicate with 30 μM as final top dose). Subsequently plates were incubated for 24 h in a standard tissue culture incubator and equilibrated at room temperature for 15 minutes. Nano-Glo HiBiT Lytic Detection System (Promega N3050) reagent was freshly prepared and 20 ul was added to each well. Upon addition of this LgBit-containing reagent, the HiBiT and LgBiT proteins associate to form the luminescent NanoBiT luciferase. The plates were shaken for 10 minutes at room temperature and the bioluminescence read using an EnVision plate reader (PerkinElmer).
(§2) The degradation % was calculated using the following formula: % degradation=100%−100%×(LumSample−LumLC)/(LumHC−LumLC). DMSO treated cells are employed as High Control (HC) and 2 μM of a known BRM/BRG1 degrader standard treated cells are employed as Low Control (LC).
(The HiBiT peptide binds its large partner to form an active luciferase.)

Experiment [1] deals with T2, HiBit-BRG1 fusion protein (Homo sapiens, UniProt P51532).
T2 construct: expressed in transfected cells
T2 sequence (P51532 whole entry, the tested form may be a part): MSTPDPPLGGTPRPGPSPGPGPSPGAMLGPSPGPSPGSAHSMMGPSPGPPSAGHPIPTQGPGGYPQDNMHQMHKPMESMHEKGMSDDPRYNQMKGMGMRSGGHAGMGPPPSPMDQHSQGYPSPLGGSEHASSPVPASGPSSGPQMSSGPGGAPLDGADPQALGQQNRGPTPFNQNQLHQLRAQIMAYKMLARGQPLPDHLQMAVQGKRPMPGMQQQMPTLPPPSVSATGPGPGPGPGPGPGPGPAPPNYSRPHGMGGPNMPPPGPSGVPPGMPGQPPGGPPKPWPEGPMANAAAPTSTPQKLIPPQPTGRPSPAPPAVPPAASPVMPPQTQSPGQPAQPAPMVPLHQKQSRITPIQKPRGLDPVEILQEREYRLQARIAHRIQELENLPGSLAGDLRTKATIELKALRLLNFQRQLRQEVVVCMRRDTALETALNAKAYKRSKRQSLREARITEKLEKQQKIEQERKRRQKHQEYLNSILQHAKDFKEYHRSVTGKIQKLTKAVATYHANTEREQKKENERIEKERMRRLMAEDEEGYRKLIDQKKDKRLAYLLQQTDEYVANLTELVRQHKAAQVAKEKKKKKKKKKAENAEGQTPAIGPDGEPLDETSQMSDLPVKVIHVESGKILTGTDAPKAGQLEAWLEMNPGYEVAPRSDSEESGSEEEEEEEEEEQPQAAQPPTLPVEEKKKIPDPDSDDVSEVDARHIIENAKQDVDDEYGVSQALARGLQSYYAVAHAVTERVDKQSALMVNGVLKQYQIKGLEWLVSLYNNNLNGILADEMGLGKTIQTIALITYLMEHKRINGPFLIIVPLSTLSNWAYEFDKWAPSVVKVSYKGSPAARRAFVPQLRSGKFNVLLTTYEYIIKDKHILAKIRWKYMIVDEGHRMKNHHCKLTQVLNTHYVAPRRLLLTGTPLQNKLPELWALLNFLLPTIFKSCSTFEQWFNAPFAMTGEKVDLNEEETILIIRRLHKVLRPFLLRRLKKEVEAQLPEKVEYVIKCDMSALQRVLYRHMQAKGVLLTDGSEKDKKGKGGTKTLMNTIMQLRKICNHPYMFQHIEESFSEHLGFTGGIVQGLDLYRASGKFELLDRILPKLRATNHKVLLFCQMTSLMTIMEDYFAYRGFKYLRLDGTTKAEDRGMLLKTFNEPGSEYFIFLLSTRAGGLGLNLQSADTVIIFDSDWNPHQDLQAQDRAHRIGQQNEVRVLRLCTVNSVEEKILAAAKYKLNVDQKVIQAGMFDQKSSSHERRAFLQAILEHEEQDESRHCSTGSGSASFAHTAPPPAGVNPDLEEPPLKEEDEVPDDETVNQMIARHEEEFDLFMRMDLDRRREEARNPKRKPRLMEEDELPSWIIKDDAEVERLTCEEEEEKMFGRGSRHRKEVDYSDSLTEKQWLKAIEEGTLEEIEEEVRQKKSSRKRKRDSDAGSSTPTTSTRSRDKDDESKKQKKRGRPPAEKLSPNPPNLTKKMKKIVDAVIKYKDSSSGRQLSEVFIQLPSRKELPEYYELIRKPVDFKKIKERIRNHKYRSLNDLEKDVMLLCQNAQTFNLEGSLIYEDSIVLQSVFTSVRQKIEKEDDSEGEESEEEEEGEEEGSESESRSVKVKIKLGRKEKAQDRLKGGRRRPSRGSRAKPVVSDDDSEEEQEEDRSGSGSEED
In words: HiBiT-BRG1 cell-based degradation assay (Nano-Glo HiBiT Lytic Detection). The settings on record: stable HeLa cell line expressing HiBit-BRG1 and LgBit, 24 h incubation; for Dmax: top dose 30 μM, read-out: BRG1 HiBit Degradation Maximum (%); for DC50: read-out: BRMG1 HiBit Degradation IC50. The protocol: as §1
For measurement of BRG1 degradation, a stable HeLa cell line expressing HiBit-BRG1 and LgBit was generated. The same protocol as above was then followed.
as §2

T1 sequence (P51531 whole entry, the tested form may be a part): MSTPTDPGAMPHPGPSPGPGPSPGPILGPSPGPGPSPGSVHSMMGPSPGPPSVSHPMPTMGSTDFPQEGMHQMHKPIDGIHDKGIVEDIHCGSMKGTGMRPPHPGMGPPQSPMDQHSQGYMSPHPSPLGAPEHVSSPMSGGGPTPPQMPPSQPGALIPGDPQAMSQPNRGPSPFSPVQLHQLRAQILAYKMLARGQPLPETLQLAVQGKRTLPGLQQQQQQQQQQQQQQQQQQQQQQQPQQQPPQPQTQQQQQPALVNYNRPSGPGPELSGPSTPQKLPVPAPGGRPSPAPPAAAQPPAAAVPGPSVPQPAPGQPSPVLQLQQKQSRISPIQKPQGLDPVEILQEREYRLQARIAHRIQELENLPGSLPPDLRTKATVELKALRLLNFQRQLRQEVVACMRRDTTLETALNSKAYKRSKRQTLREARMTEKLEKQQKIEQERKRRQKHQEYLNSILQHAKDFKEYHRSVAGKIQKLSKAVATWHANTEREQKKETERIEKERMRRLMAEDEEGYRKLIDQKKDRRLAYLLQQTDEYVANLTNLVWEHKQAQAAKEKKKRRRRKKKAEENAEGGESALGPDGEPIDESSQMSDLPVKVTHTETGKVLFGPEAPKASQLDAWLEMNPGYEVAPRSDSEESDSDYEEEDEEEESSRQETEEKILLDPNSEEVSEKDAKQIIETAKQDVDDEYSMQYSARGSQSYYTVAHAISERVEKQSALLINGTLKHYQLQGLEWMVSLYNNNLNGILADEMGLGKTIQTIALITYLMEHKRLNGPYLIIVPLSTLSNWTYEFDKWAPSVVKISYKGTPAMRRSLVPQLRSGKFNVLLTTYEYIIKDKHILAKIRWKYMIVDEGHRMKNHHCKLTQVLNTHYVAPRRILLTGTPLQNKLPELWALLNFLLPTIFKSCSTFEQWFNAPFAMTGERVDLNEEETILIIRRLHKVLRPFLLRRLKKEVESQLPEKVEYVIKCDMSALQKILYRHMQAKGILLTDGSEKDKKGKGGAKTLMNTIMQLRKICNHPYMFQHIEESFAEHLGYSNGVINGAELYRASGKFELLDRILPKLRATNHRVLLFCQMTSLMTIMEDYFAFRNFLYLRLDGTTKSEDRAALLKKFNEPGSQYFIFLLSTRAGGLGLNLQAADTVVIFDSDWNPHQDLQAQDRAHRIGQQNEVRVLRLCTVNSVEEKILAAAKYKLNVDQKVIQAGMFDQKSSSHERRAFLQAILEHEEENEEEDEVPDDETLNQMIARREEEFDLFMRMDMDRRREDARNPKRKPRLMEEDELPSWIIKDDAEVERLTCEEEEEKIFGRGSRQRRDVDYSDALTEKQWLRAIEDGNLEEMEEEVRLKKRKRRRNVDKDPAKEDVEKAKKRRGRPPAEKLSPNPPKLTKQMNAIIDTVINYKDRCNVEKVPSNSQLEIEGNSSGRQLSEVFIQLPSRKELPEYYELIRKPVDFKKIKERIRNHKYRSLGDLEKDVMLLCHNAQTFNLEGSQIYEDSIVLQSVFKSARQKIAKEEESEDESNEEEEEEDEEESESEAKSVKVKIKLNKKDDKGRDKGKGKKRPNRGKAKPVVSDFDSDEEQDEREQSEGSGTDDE

With `Cc1ncsc1-c1ccc([C@H](C)NC(=O)[C@@H]2C[C@@H](O)CN2C(=O)[C@@H](c2cc(OCCN3C[C@@H]4[C@H](C3)[C@H]4c3cc4cc(-c5ccccc5O)nnc4s3)no2)C(C)C)cc1` [Compound 32], at HiBit-BRM fusion protein, the “BRM HiBit Degradation Maximum (%)” value is on record as “A (“A” indicates maximum degradation ≥ 75%)” and the DC50 is no less than 10 nM. Also, in experiment [1], the Dmax is less than 50% and the DC50 was no less than 1000 nM.
For `Cc1ncsc1-c1ccc([C@H](C)NC(=O)[C@@H]2C[C@@H](O)CN2C(=O)[C@H](c2cc(N3CCC(CN4CC(c5cc6cc(-c7ccccc7O)nnc6s5)C4)CC3)no2)C(C)C)cc1` [Compound 33] the same measures were “C (“C” indicates maximum degradation < 50%)”, no less than 1000 nM, less than 50% and no less than 1000 nM.
For `Cc1ncsc1-c1ccc([C@H](C)NC(=O)[C@@H]2C[C@@H](O)CN2C(=O)[C@@H](c2cc(O[C@@H]3CC[C@@H]3N3CCC(c4sc5nnc(-c6ccccc6O)cc5c4C)CC3)no2)C(C)C)cc1` [Compound 35, (2S,4R)-4-hydroxy-1-[(2R)-2-{3-[(1R,2S)-2-{4-[3-(2-hydroxyphenyl)-5-methylthieno[2,3-c]pyridazin-6-yl]piperidin-1-yl}cyclobutoxy]-1,2-oxazol-5-yl}-3-methylbutanoyl]-N-[(1S)-1-[4-(4-methyl-1,3-thiazol-5-yl)phenyl]ethyl]pyrrolidine-2-carboxamide] the same measures were “A (“A” indicates maximum degradation ≥ 75%)”, no less than 10 nM, less than 50% and no less than 1000 nM.
For `Cc1ncsc1-c1ccc([C@H](C)NC(=O)[C@@H]2C[C@@H](O)CN2C(=O)[C@@H](c2cc(O[C@H]3CC[C@@H]3N3CCC(c4sc5nnc(-c6ccccc6O)cc5c4C)CC3)no2)C(C)C)cc1` [Compound 36, (2S,4R)-4-hydroxy-1-[(2R)-2-{3-[(1S,2S)-2-{4-[3-(2-hydroxyphenyl)-5-methylthieno[2,3-c]pyridazin-6-yl]piperidin-1-yl}cyclobutoxy]-1,2-oxazol-5-yl}-3-methylbutanoyl]-N-[(1S)-1-[4-(4-methyl-1,3-thiazol-5-yl)phenyl]ethyl]pyrrolidine-2-carboxamide] the same measures were “B (“B” indicates maximum degradation ≥ 50%)”, no less than 10 nM, less than 50% and no less than 1000 nM.
Consider `Cc1ncsc1-c1ccc([C@H](C)NC(=O)[C@@H]2C[C@@H](O)CN2C(=O)[C@@H](c2cc([C@H]3CC[C@@H](N4CCC(c5sc6nnc(-c7ccccc7O)cc6c5C)CC4)CC3)no2)C(C)C)cc1` [Compound 37, (2S,4R)-4-hydroxy-1-((R)-2-(3-((1s,4S)-4-(4-(3-(2-hydroxyphenyl)-5-methylthieno[2,3-c]pyridazin-6-yl)piperidin-1-yl)cyclohexyl)isoxazol-5-yl)-3-methylbutanoyl)-N-((S)-1-(4-(4-methylthiazol-5-yl)phenyl)ethyl)pyrrolidine-2-carboxamide], for which, at HiBit-BRM fusion protein, the “BRM HiBit Degradation Maximum (%)” value is “A (“A” indicates maximum degradation ≥ 75%)” and the DC50 is less than 10 nM. Further, in experiment [1], the Dmax was less than 50% and the DC50 is no less than 1000 nM.
For `Cc1ncsc1-c1ccc([C@H](C)NC(=O)[C@@H]2C[C@@H](O)CN2C(=O)[C@@H](c2cc([C@H]3CC[C@H](N4CCC(c5sc6nnc(-c7ccccc7O)cc6c5C)CC4)CC3)no2)C(C)C)cc1` [Compound 38, (2S,4R)-4-hydroxy-1-((R)-2-(3-((1r,4R)-4-(4-(3-(2-hydroxyphenyl)-5-methylthieno[2,3-c]pyridazin-6-yl)piperidin-1-yl)cyclohexyl)isoxazol-5-yl)-3-methylbutanoyl)-N-((S)-1-(4-(4-methylthiazol-5-yl)phenyl)ethyl)pyrrolidine-2-carboxamide] the same measures were “A (“A” indicates maximum degradation ≥ 75%)”, no less than 100 nM, less than 50% and no less than 1000 nM.
As for `Cc1ncsc1-c1ccc([C@H](C)NC(=O)[C@@H]2C[C@@H](O)CN2C(=O)[C@@H](c2cc(OCCN[C@H]3CCc4sc5nnc(-c6ccccc6O)cc5c4C3)no2)C(C)C)cc1` [Compound 39, (2S,4R)-4-hydroxy-1-((R)-2-(3-(2-(((S)-3-(2-hydroxyphenyl)-5,6,7,8-tetrahydrobenzo[4,5]thieno[2,3-c]pyridazin-6-yl)amino)ethoxy)isoxazol-5-yl)-3-methylbutanoyl)-N—((S)-1-(4-(4-methylthiazol-5-yl)phenyl)ethyl)pyrrolidine-2-carboxamide], at HiBit-BRM fusion protein, the “BRM HiBit Degradation Maximum (%)” value is listed as “C (“C” indicates maximum degradation < 50%)” and the DC50 is no less than 1000 nM. In experiment [1], the Dmax is less than 50% and the DC50 is no less than 1000 nM.
On to `Cc1ncsc1-c1ccc([C@H](C)NC(=O)[C@@H]2C[C@@H](O)CN2C(=O)[C@@H](c2cc(OCCN[C@@H]3CCc4sc5nnc(-c6ccccc6O)cc5c4C3)no2)C(C)C)cc1` [Compound 40, (2S,4R)-4-hydroxy-1-((R)-2-(3-(2-(((R)-3-(2-hydroxyphenyl)-5,6,7,8-tetrahydrobenzo[4,5]thieno[2,3-c]pyridazin-6-yl)amino)ethoxy)isoxazol-5-yl)-3-methylbutanoyl)-N—((S)-1-(4-(4-methylthiazol-5-yl)phenyl)ethyl)pyrrolidine-2-carboxamide], for which, at HiBit-BRM fusion protein, the “BRM HiBit Degradation Maximum (%)” value was “C (“C” indicates maximum degradation < 50%)” and the DC50 is no less than 1000 nM. Besides, in experiment [1], the Dmax was less than 50% and the DC50 was no less than 1000 nM.
With `Cc1ncsc1-c1ccc([C@H](C)NC(=O)[C@@H]2C[C@@H](O)CN2C(=O)[C@@H](c2cc(N3C[C@H]4C[C@@H]3CN4C(=O)[C@H]3CCc4sc5nnc(-c6ccccc6O)cc5c4C3)no2)C(C)C)cc1` [Compound 41, (2S,4R)-4-hydroxy-1-((R)-2-(3-((1R,4R)-5-((S)-3-(2-hydroxyphenyl)-5,6,7,8-tetrahydrobenzo[4,5]thieno[2,3-c]pyridazine-6-carbonyl)-2,5-diazabicyclo[2.2.1]heptan-2-yl)isoxazol-5-yl)-3-methylbutanoyl)-N—((S)-1-(4-(4-methylthiazol-5-yl)phenyl)ethyl)pyrrolidine-2-carboxamide], on HiBit-BRM fusion protein, the “BRM HiBit Degradation Maximum (%)” value is listed as “A (“A” indicates maximum degradation ≥ 75%)” and the DC50 was no less than 10 nM. In experiment [1], the Dmax is no less than 50% and the DC50 is no less than 100 nM.
For `Cc1ncsc1-c1ccc([C@H](C)NC(=O)[C@@H]2C[C@@H](O)CN2C(=O)[C@@H](c2cc(N3C[C@H]4C[C@@H]3CN4C(=O)[C@@H]3CCc4sc5nnc(-c6ccccc6O)cc5c4C3)no2)C(C)C)cc1` [Compound 42, (2S,4R)-4-hydroxy-1-((R)-2-(3-((1R,4R)-5-((R)-3-(2-hydroxyphenyl)-5,6,7,8-tetrahydrobenzo[4,5]thieno[2,3-c]pyridazine-6-carbonyl)-2,5-diazabicyclo[2.2.1]heptan-2-yl)isoxazol-5-yl)-3-methylbutanoyl)-N—((S)-1-(4-(4-methylthiazol-5-yl)phenyl)ethyl)pyrrolidine-2-carboxamide] the same measures were “A (“A” indicates maximum degradation ≥ 75%)”, no less than 100 nM, less than 50% and no less than 1000 nM.
For `Cc1ncsc1-c1ccc([C@H](C)NC(=O)[C@@H]2C[C@@H](O)CN2C(=O)[C@@H](c2cc(N3C[C@@H]4C[C@H]3CN4C(=O)[C@H]3CCc4sc5nnc(-c6ccccc6O)cc5c4C3)no2)C(C)C)cc1` [Compound 43, (2S,4R)-4-hydroxy-1-((R)-2-(3-((1S,4S)-5-((S)-3-(2-hydroxyphenyl)-5,6,7,8-tetrahydrobenzo[4,5]thieno[2,3-c]pyridazine-6-carbonyl)-2,5-diazabicyclo[2.2.1]heptan-2-yl)isoxazol-5-yl)-3-methylbutanoyl)-N-((S)-1-(4-(4-methylthiazol-5-yl)phenyl)ethyl)pyrrolidine-2-carboxamide] the same measures were “C (“C” indicates maximum degradation < 50%)”, no less than 1000 nM, less than 50% and no less than 1000 nM.
For `Cc1ncsc1-c1ccc([C@H](C)NC(=O)[C@@H]2C[C@@H](O)CN2C(=O)[C@@H](c2cc(N3C[C@@H]4C[C@H]3CN4C(=O)[C@@H]3CCc4sc5nnc(-c6ccccc6O)cc5c4C3)no2)C(C)C)cc1` [Compound 44, (2S,4R)-4-hydroxy-1-((R)-2-(3-((1S,4S)-5-((R)-3-(2-hydroxyphenyl)-5,6,7,8-tetrahydrobenzo[4,5]thieno[2,3-c]pyridazine-6-carbonyl)-2,5-diazabicyclo[2.2.1]heptan-2-yl)isoxazol-5-yl)-3-methylbutanoyl)-N-((S)-1-(4-(4-methylthiazol-5-yl)phenyl)ethyl)pyrrolidine-2-carboxamide] the same measures were “B (“B” indicates maximum degradation ≥ 50%)”, no less than 100 nM, less than 50% and no less than 1000 nM.
